Active and inactive are the calls of the source. No cut-off for these calls is given here.
Legend:
Rattus norvegicus [1] = experiment: Antiinflammatory activity against trinitrobenzenesulfonic acid-induced colitis in Wistar rat assessed as decrease in appearance of mucosal abscess at 100 mg/kg, po measured 24 hrs after last dose on day 11 by haematoxylin/eosin staining; format: functional, organism-based; parameters: dose 100 mg/kg
Rattus norvegicus [2] = experiment: Antiinflammatory activity against trinitrobenzenesulfonic acid-induced colitis in Wistar rat assessed as decrease in inflammatory cell infiltration at 100 mg/kg administered rectallysmeasured 24 hrs after last dose on day 11 by haematoxylin/eosin staining; format: functional, organism-based; parameters: dose 100 mg/kg
Rattus norvegicus [3] = experiment: Antiinflammatory activity against trinitrobenzenesulfonic acid-induced colitis in Wistar rat assessed as decrease in appearance of mucosal abscess at 100 mg/kg administered rectally measured 24 hrs after last dose on day 11 by haematoxylin/eosin staining in presence of sulfasalazine; format: functional, organism-based; parameters: dose 100 mg/kg
Rattus norvegicus [4] = experiment: Antiinflammatory activity against trinitrobenzenesulfonic acid-induced colitis in Wistar rat assessed as decrease in appearance of mucosal abscess at 100 mg/kg administered rectally measured 24 hrs after last dose on day 11 by haematoxylin/eosin staining; format: functional, organism-based; parameters: dose 100 mg/kg
Rattus norvegicus [5] = experiment: Antiinflammatory activity against trinitrobenzenesulfonic acid-induced colitis in Wistar rat at 100 mg/kg, administered rectally; format: functional, organism-based; parameters: dose 100 mg/kg
Rattus norvegicus [6] = experiment: Antiinflammatory activity against trinitrobenzenesulfonic acid-induced colitis in Wistar rat assessed as decrease in inflammatory cell infiltration at 100 mg/kg administered rectally measured 24 hrs after last dose on day 11 by haematoxylin/eosin staining in presence of sulfasalazine; format: functional, organism-based; parameters: dose 100 mg/kg
Rattus norvegicus [7] = experiment: Antiinflammatory activity against trinitrobenzenesulfonic acid-induced colitis in Wistar rat at 100 mg/kg, administered rectally in presence of 5-aminosalicylic acid; format: functional, organism-based; parameters: dose 100 mg/kg
Rattus norvegicus [8] = experiment: Antiarthritic activity against Freund's adjuvant-induced arthritis in Wistar rat assessed as reduction in paw volume administered 13 days after Freund's adjuvant challenge measured on day 21; format: functional; parameters: concentration or dose not given beside the values
Rattus norvegicus [9] = experiment: Gastrointestinal toxicity in Wistar rat assessed as ulcer index at 1154.3 mg/kg, po by Rainsford's cold stress method; format: organism-based; parameters: dose 1154.3 mg/kg, route oral; conditions: in vivo
Rattus norvegicus [10] = experiment: Antiinflammatory activity against trinitrobenzenesulfonic acid-induced colitis in Wistar rat at 100 mg/kg, po; format: functional, organism-based; parameters: dose 100 mg/kg
Rattus norvegicus [11] = experiment: Antiinflammatory activity against trinitrobenzenesulfonic acid-induced colitis in Wistar rat assessed as decrease in inflammatory cell infiltration at 100 mg/kg, po measured 24 hrs after last dose on day 11 by haematoxylin/eosin staining; format: functional, organism-based; parameters: dose 100 mg/kg
[12] = Partition coefficient, log P in n-octanol/phosphate buffer of pH 7.4; format: physicochemical
[13] = Stability in phosphate buffer of pH 7.4 assessed as drug release after 7 hrs; format: physicochemical; conditions: pH 7.4, 7 h
Rattus norvegicus [14] = experiment: Gastrointestinal toxicity in Wistar rat assessed as ulcer index at 3050 mg/kg, po by Rainsford's cold stress method; format: organism-based; parameters: dose 3050 mg/kg, route oral; conditions: in vivo
[15] = Stability in rat feces assessed as cumulated 5-aminosalicylic acid release measured for 6 to 7 hrs by UV spectrophotometry in presence of azo reductase; format: ADME, tissue-based
[16] = Aqueous solubility of the compound; format: physicochemical; conditions: aqueous medium
Rattus norvegicus [17] = experiment: Antiinflammatory activity against trinitrobenzenesulfonic acid-induced colitis in Wistar rat assessed as decrease in colonic myeloperoxidase activity at 100 mg/kg, po measured 24 hrs after last dose on day 11 by spectrometry; format: functional, organism-based; parameters: dose 100 mg/kg
Rattus norvegicus [18] = experiment: Antiinflammatory activity against trinitrobenzenesulfonic acid-induced colitis in Wistar rat assessed as decrease in colon to body weight ratio at 100 mg/kg, po measured 24 hrs after last dose on day 11; format: functional, organism-based; parameters: dose 100 mg/kg
[19] = Stability in rat feces assessed as half life at 250 ug/mL by UV spectrophotometry in presence of azo reductase; format: ADME, tissue-based
[20] = Stability in 0.05 M hydrochloric acid buffer of pH 1.2; format: physicochemical
Rattus norvegicus [21] = experiment: Gastrointestinal toxicity in Wistar rat assessed as ulcer index at 3000 mg/kg, po by Rainsford's cold stress method; format: organism-based; parameters: dose 3000 mg/kg, route oral; conditions: in vivo
Rattus norvegicus [22] = experiment: Gastrointestinal toxicity in Wistar rat assessed as ulcer index at 3647.7 mg/kg, po by Rainsford's cold stress method; format: organism-based; parameters: dose 3647.7 mg/kg, route oral; conditions: in vivo
Rattus norvegicus [23] = experiment: Gastrointestinal toxicity in Wistar rat assessed as ulcer index at 2829 mg/kg, po by Rainsford's cold stress method; format: organism-based; parameters: dose 2829 mg/kg, route oral; conditions: in vivo

Row | Structure (SMILES) | Activity (Rattus norvegicus [1]) | Activity (Rattus norvegicus [4]) | Activity (Rattus norvegicus [5]) | Activity (Rattus norvegicus [6]) | Activity (Rattus norvegicus [7]) | Activity (Rattus norvegicus [8]) [%] | logD [12] | Activity [15] [%] | solubility [16] [mg/mL] | Activity (Rattus norvegicus [17]) | Activity (Rattus norvegicus [18]) | half-life at 250 ug/mL [19] [h] | Stability [20] | further results
1 | N[C@H](Cc1ccccc1)C(=O)O | Active | Active | Active | Active | Active | – | – | – | – | – | – | – | – | Activity (Rattus norvegicus [2]): Active; Activity (Rattus norvegicus [3]): Active
2 | Nc1ccc(O)c(C(=O)O)c1 [MESALAMINE] | – | – | – | – | – | 47 | – | – | – | – | – | – | – | UI (Rattus norvegicus [9]): 60.03
3 | N[C@@H](Cc1c[nH]c2ccccc12)C(=O)O | Active | Active | – | Active | Active | – | – | – | – | – | – | – | – | Activity (Rattus norvegicus [2]): Active; Activity (Rattus norvegicus [3]): Active; Activity (Rattus norvegicus [10]): Active; Activity (Rattus norvegicus [11]): Active
4 | O=C([O-])c1cc(/N=N/[C@H](Cc2ccccc2)C(=O)[O-])ccc1O.[Na+].[Na+] | – | – | Active | – | – | 62 | 0.3 | 85 | 250 | Active | Active | 2.67 | Stable | Activity [13]: 15%; UI (Rattus norvegicus [14]): 11.3
5 | O=C(O)c1cc(/N=N/c2ccc(S(=O)(=O)Nc3ccccn3)cc2)ccc1O [SULFASALAZINE] | – | – | Active | – | – | 73 | – | – | – | Active | Active | – | – | UI (Rattus norvegicus [21]): 9
6 | N[C@@H](Cc1ccc(O)cc1)C(=O)O | inactive | Active | – | Active | Active | – | – | – | – | – | – | – | – | Activity (Rattus norvegicus [10]): inactive; Activity (Rattus norvegicus [11]): inactive
7 | O=C([O-])c1cc(/N=N/[C@@H](Cc2ccc(O)cc2)C(=O)[O-])ccc1O.[Na+].[Na+] | – | – | Active | – | – | 62 | 0.35 | 87 | 260 | Active | Active | 2.33 | Stable | UI (Rattus norvegicus [22]): 10.76
8 | O=C([O-])c1cc(/N=N/[C@@H](Cc2c[nH]c3ccccc23)C(=O)[O-])ccc1O.[Na+].[Na+] | – | – | Active | – | – | 62 | 0.26 | 88 | 280 | Active | Active | 2.4 | Stable | Activity [13]: 15%; UI (Rattus norvegicus [23]): 13
9 | Nc1ccc(C(=O)O)c(O)c1 [AMINOSALICYLIC ACID] | – | – | – | – | – | – | – | – | – | – | – | – | – | UI (Rattus norvegicus [9]): 69.61

Reference: ChEMBL document CHEMBL1154161, “Synthesis, kinetic studies and pharmacological evaluation of mutual azo prodrugs of 5-aminosalicylic acid for colon-specific drug delivery in inflammatory bowel disease” (Eur J Med Chem, 2009)
